The values that follow come from patent US20150306269A1, “UPSTREAM HYDROGEN PEROXIDE […]” (The Vincit Company, LLC, priority 2014, published 2015).

The subject of test [1] is bacteria. In words: Chicken wings: total plate count of inoculated chicken wing skin after exposure to treated air. It counts as cell-based. The following applies: chicken wings inoculated in Tryptic Soy Broth with about seven log bacteria; maximum over 10, 30, 45 and 60 seconds treatment; nebulized 3% hydrogen peroxide; Tryptic Soy Agar, 24 hours. The procedure:
Similar testing was performed on chicken wings. Twenty-four store-bought chicken wings were prepared by submersing them in a Tryptic Soy Broth broth solution containing about a seven log concentration of bacteria. The wings were removed and allowed to air dry. The wings were separated into groups of six, one group designated to be exposed to air running through the air sanitation system containing only nebulized 3% hydrogen peroxide, another group exposed to UV light-generated radicals, and the last group exposed to both 3% H2O2 and UV radicals. The final six wings were designated the control group and were exposed only to untreated air circulated though the sanitation system.
Immediately following treatment at times of 10 seconds, 30 seconds, 45 seconds and 60 seconds, approximately 1 square inch of skin on each wing was swabbed with moistened sample sponges. The sponges were stomached in phosphate buffer solution for 2 minutes, then the buffer solution was serially diluted and plated on Tryptic Soy Agar and incubated for 24 hours to obtain a total plate count.

The test system of test [2] is bacteria. Put plainly: Egg shell testing: total plate count of inoculated egg shells after exposure to treated air. The test is classed as cell-based. The following applies: half egg shells inoculated in broth with about seven log bacteria; 10 minutes exposure; nebulized 3% hydrogen peroxide; swab plated on Tryptic Soy Agar, 24 hours.
Protocol: In preliminary testing, twelve store-bought fresh eggs were prepared by blowing out the contents and cutting the egg shells in half. Twenty-four half shells were inoculated by submersion in a broth solution containing about a seven log concentration bacteria. Egg shells were removed and allowed to air dry. […] The final six shells were designated the control group and were exposed only to untreated air circulated though the sanitation system. The twenty-four half shells were allowed to be exposed to their respective situation for a period of 10 minutes.
Immediately following treatment, approximately 1 square inch swab samples were taken from the surface of each egg shell then serially diluted and plated on Tryptic Soy Agar and incubated for 24 hours to obtain a total plate count.

Consider `OO` [H2O2, hydrogen peroxide], for which, in the test with bacteria [1], the “maximum log10 reduction (total plate count)” value came to 0.9 log10. The “log10 reduction (total plate count)” value in the test with bacteria [2] stood at 1.5 log10.
